Test results: patent publication US20260201008A1, “SECRETIN-DERIVED GLP1R SELECTIVE AGONISTS” (GUBRA A/S, priority 2023, published 2026)
Like-named read-outs stand apart in the source and are kept apart here. Numbered stars: 1 amine (or outer) side, 2 acyl side, 3 side chain; on linkers, the order of the positions; unused ones are H or OH. Square brackets hold non-standard residues; d marks the D form. Side chains are listed from the residue outwards. Peptide text beside a SMILES is read from it. * marks the point of attachment. C20 diacid = O=C(O)CCCCCCCCCCCCCCCCCCC(=O)*; γGlu = O=C(O)[C@H](CCC(=O)[*:2])N[*:1]; AEEA = NCCOCCOCC(=O)O; Aib = CC(C)(N)C(=O)O

Key:
[1] = Turbidity of crude library peptides (absorbance at 600 nm); format: physicochemical; settings: Physical stability of peptides
Outline: (§1)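 Values reflect mean ThT emission (ex 450, em 480 nm) over 72 h at 40° C, read every 10 min after 5 min shaking at 700 rpm, plus a single initial absorbance at 600 nm for turbidity. Peptides were at 267 μM, pH 4.0 acetate or pH 7.0 phosphate (50 mM), with 4 μM ThT.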

[2] = Fibril formation of crude library peptides (Thioflavin T); format: physicochemical; parameters: key: average ThT fluorescence emission at 480 nm (ex 450 nm), raw units; settings: Physical stability of peptides
Outline: as §1

[3] = target: GLP1R (Homo sapiens, UniProt P43220); test: hGLP1R potency, cAMP accumulation in CHO-K1 cells stably overexpressing hGLP1R; format: cell-based; parameters: host or cells: CHO-K1; settings: for Selectivity: SCTR EC50/GLP1R EC50 ratio; for EC50: cAMP accumulation; for SCTR EC50/GLP1R EC50 ratio: cAMP accumulation in CHO-K1 cells
Outline: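 Potency reflects cAMP accumulation measured by time-resolved fluorescence energy transfer after a 30 min room-temperature stimulation in IBMX-containing (0.5 mM) DPBS with casein. Purified peptides were tested in duplicate over eleven threefold dilutions, and EC50 was obtained from sigmoid concentration-response fitting.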

[4] = target: SCTR (Homo sapiens, UniProt P47872); test: hSCTR potency, cAMP accumulation in CHO-K1 cells stably overexpressing hSCTR; format: cell-based; parameters: alternatively Euroscreen ES-712-AF; FAST-0161L; host or cells: CHO-K1; settings: cAMP accumulation
Outline: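 Potency reflects cAMP accumulation after 30 min agonist exposure at room temperature in hSCTR-expressing CHO-K1 cells, with 0.5 mM IBMX present to block phosphodiesterase. EC50 was derived by nonlinear regression.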

[5] = CHO-K1 cells overexpressing hGLP1R, read-out: pEC50 hGLPR1 (converted)
[6] = CHO-K1 cells overexpressing hSCTR, read-out: pEC50 hSCTR (converted)
[7] = CHO-K1 cells overexpressing hGLP1R, read-out: hGLP1R pEC50 (converted)
[8] = selectivity for hGLP1R over hSCTR
[9] = CHO-K1 cells overexpressing hSCTR, read-out: hSCTR pEC50 (converted)

Sequence of GLP1R (P43220 24-463): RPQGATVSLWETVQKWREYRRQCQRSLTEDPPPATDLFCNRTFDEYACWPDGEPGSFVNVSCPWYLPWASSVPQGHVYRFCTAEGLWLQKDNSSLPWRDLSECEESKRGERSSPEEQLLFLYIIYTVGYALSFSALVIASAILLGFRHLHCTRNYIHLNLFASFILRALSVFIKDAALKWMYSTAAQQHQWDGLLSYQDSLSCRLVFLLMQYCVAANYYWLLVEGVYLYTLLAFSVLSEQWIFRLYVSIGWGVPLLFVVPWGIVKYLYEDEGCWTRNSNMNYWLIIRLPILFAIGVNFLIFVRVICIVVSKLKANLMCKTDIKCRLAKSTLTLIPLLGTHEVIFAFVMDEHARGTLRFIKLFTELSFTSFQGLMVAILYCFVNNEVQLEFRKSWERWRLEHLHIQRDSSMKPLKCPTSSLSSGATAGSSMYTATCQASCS
Sequence of SCTR (P47872 23-440): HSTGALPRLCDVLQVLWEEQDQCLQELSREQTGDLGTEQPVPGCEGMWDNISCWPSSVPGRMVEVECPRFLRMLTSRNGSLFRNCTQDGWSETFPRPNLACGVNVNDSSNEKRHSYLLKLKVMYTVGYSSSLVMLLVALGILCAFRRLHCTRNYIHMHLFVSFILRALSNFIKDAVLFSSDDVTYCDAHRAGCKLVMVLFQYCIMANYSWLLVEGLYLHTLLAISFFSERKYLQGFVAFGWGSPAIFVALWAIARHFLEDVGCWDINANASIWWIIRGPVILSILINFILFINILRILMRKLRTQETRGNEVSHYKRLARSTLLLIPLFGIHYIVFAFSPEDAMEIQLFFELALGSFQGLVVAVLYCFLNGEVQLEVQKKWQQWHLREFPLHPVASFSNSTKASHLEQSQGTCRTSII

Row | Turbidity (pH 7) [1] | Fibril formation [2] | Selectivity [3] | EC50 [3, 5] | EC50 [4, 6] | EC50 [3, 7] | SCTR EC50/GLP1R EC50 ratio [3, 8] | EC50 [4, 9] | EC50 ([3]; CHO-K1 cells stably overexpressing hGLP1R, read-out: hGLP1R potency (pEC50) (converted)) | SCTR EC50/GLP1R EC50 ratio ([3]; selectivity ratio, hSCTR vs hGLP1R) | EC50 ([4]; CHO-K1 cells stably overexpressing hSCTR, read-out: hSCTR potency (pEC50) (converted)) | SMILES
1 | 0.08 | 96622 | 9251 | 0.1 nM | 1000 nM |  |  |  |  |  |  | CC(C)C[C@H](NC(=O)[C@H](Cc1ccccc1)NC(=O)[C@H](CCCNC(=N)N)NC(=O)[C@H](CCC(N)=O)NC(=O)[C@H](CCC(=O)O)NC(=O)[C@H](C)NC(=O)[C@H](C)NC(=O)[C@H](Cc1ccccc1)NC(=O)[C@H](CCC(=O)O)NC(=O)[C@H](CCCCNC(=O)COCCOCCNC(=O)COCCOCCNC(=O)CC[C@H](NC(=O)CCCCCCCCCCCCCCCCCCC(=O)O)C(=O)O)NC(=O)[C@H](CC(C)C)NC(=O)[C@H](CCCNC(=N)N)NC(=O)[C@H](CO)NC(=O)[C@@H](NC(=O)[C@H](CC(=O)O)NC(=O)[C@H](CO)NC(=O)[C@@H](NC(=O)[C@H](Cc1ccccc1)NC(=O)[C@@H](NC(=O)CNC(=O)[C@H](CCC(=O)O)NC(=O)C(C)(C)NC(=O)[C@@H](N)Cc1c[nH]cn1)[C@@H](C)O)[C@@H](C)O)C(C)C)C(=O)N[C@@H](CCC(=O)O)C(=O)N[C@@H](Cc1c[nH]cn1)C(=O)N[C@@H](CC(C)C)C(=O)N[C@H](C(N)=O)C(C)C [compound 72] (H-H[Aib]EGTFTSDVSRLK([AEEA-AEEA-γGlu-C20 diacid])EFAAEQRFLEHLV-NH2)
2 | 0.08 | 3105 |  |  |  | 0.0126 nM | 367578 | 3980 nM |  |  |  | CC(C)C[C@H](NC(=O)[C@H](Cc1ccccc1)NC(=O)[C@H](CCCNC(=N)N)NC(=O)[C@H](CCC(N)=O)NC(=O)C(C)(C)NC(=O)C(C)(C)NC(=O)[C@H](C)NC(=O)[C@H](CCC(=O)O)NC(=O)[C@H](CCC(=O)O)NC(=O)[C@H](CCCCNC(=O)COCCOCCNC(=O)COCCOCCNC(=O)CC[C@H](NC(=O)CCCCCCCCCCCCCCCCCCC(=O)O)C(=O)O)NC(=O)[C@H](CC(C)C)NC(=O)[C@H](Cc1ccc(O)cc1)NC(=O)[C@H](CO)NC(=O)[C@@H](NC(=O)[C@H](CC(=O)O)NC(=O)[C@H](CO)NC(=O)[C@@H](NC(=O)[C@H](Cc1ccccc1)NC(=O)[C@@H](NC(=O)CNC(=O)[C@H](CCC(=O)O)NC(=O)C(C)(C)NC(=O)[C@@H](N)Cc1c[nH]cn1)[C@@H](C)O)[C@@H](C)O)C(C)C)C(=O)N[C@@H](CCC(=O)O)C(=O)N[C@@H](Cc1c[nH]cn1)C(=O)N[C@@H](CC(C)C)C(=O)N[C@H](C(N)=O)C(C)C [compound 152] (H-H[Aib]EGTFTSDVSYLK([AEEA-AEEA-γGlu-C20 diacid])EEA[Aib][Aib]QRFLEHLV-NH2)
3 | 0.08 | 12367 | 158052 | 0.0126 nM | 2000 nM |  |  |  |  |  |  | CC(C)C[C@H](NC(=O)[C@H](Cc1ccccc1)NC(=O)[C@H](CCCNC(=N)N)NC(=O)[C@H](CCC(N)=O)NC(=O)C(C)(C)NC(=O)[C@H](C)NC(=O)[C@H](C)NC(=O)[C@H](CCC(=O)O)NC(=O)[C@H](CCC(=O)O)NC(=O)[C@H](CCCCNC(=O)COCCOCCNC(=O)COCCOCCNC(=O)CC[C@H](NC(=O)CCCCCCCCCCCCCCCCCCC(=O)O)C(=O)O)NC(=O)[C@H](CC(C)C)NC(=O)[C@H](Cc1ccccc1)NC(=O)[C@H](CO)NC(=O)[C@@H](NC(=O)[C@H](CC(=O)O)NC(=O)[C@H](CO)NC(=O)[C@@H](NC(=O)[C@H](Cc1ccccc1)NC(=O)[C@@H](NC(=O)CNC(=O)[C@H](CCC(=O)O)NC(=O)C(C)(C)NC(=O)[C@@H](N)Cc1c[nH]cn1)[C@@H](C)O)[C@@H](C)O)C(C)C)C(=O)N[C@@H](CCC(=O)O)C(=O)N[C@@H](Cc1c[nH]cn1)C(=O)N[C@@H](CC(C)C)C(=O)N[C@H](C(N)=O)C(C)C [compound 37] (H-H[Aib]EGTFTSDVSFLK([AEEA-AEEA-γGlu-C20 diacid])EEAA[Aib]QRFLEHLV-NH2)

More lines, now with the values behind:

Row | SMILES | Turbidity (pH 7) [1] | Fibril formation [2] | Selectivity [3] | EC50 [3, 5] | EC50 [4, 6] | EC50 [3, 7] | SCTR EC50/GLP1R EC50 ratio [3, 8] | EC50 [4, 9] | EC50 ([3]; CHO-K1 cells stably overexpressing hGLP1R, read-out: hGLP1R potency (pEC50) (converted)) | SCTR EC50/GLP1R EC50 ratio ([3]; selectivity ratio, hSCTR vs hGLP1R) | EC50 ([4]; CHO-K1 cells stably overexpressing hSCTR, read-out: hSCTR potency (pEC50) (converted))
4 | CC(C)C[C@H](NC(=O)[C@H](Cc1ccccc1)NC(=O)[C@H](CCCNC(=N)N)NC(=O)[C@H](CCC(N)=O)NC(=O)[C@H](CCC(N)=O)NC(=O)[C@H](C)NC(=O)[C@H](C)NC(=O)[C@@H](NC(=O)[C@H](CCC(=O)O)NC(=O)[C@H](CCCCNC(=O)COCCOCCNC(=O)COCCOCCNC(=O)CC[C@H](NC(=O)CCCCCCCCCCCCCCCCCCC(=O)O)C(=O)O)NC(=O)[C@H](CC(C)C)NC(=O)[C@H](CCCNC(=N)N)NC(=O)[C@H](CO)NC(=O)[C@@H](NC(=O)[C@H](CC(=O)O)NC(=O)[C@H](CO)NC(=O)[C@@H](NC(=O)[C@H](Cc1ccccc1)NC(=O)[C@@H](NC(=O)CNC(=O)[C@H](CCC(=O)O)NC(=O)C(C)(C)NC(=O)[C@@H](N)Cc1c[nH]cn1)[C@@H](C)O)[C@@H](C)O)C(C)C)[C@@H](C)O)C(=O)N[C@@H](CCC(=O)O)C(=O)N[C@@H](Cc1c[nH]cn1)C(=O)N[C@@H](CC(C)C)C(=O)N[C@H](C(N)=O)C(C)C [compound 21] (H-H[Aib]EGTFTSDVSRLK([AEEA-AEEA-γGlu-C20 diacid])ETAAQQRFLEHLV-NH2) | 0.08 | 193729 | 17906 | 0.0126 nM | 200 nM |  |  |  |  |  | 
5 | CC[C@H](C)[C@H](NC(=O)[C@H](Cc1ccccc1)NC(=O)[C@H](CCCNC(=N)N)NC(=O)[C@H](CCC(N)=O)NC(=O)[C@H](CC(C)C)NC(=O)[C@H](C)NC(=O)[C@H](C)NC(=O)CNC(=O)[C@H](CCC(=O)O)NC(=O)[C@H](CC(C)C)NC(=O)[C@H](CC(C)C)NC(=O)[C@H](Cc1ccccc1)NC(=O)[C@H](CO)NC(=O)[C@@H]1CCCN1C(=O)[C@H](CC(=O)O)NC(=O)[C@H](CO)NC(=O)[C@@H](NC(=O)[C@H](Cc1ccccc1)NC(=O)[C@@H](NC(=O)CNC(=O)[C@H](CCC(=O)O)NC(=O)C(C)(C)NC(=O)[C@@H](N)Cc1c[nH]cn1)[C@@H](C)O)[C@@H](C)O)C(=O)N[C@@H](CCC(N)=O)C(=O)N[C@@H](Cc1c[nH]c2ccccc12)C(=O)N[C@@H](CC(C)C)C(=O)N[C@H](C(N)=O)C(C)C [compound 126] (H-H[Aib]EGTFTSDPSFLLEGAALQRFIQWLV-NH2) | 0.26 | 41799 |  |  |  | 7.94 nM | 253 | 2000 nM |  |  | 
6 | CC(C)C[C@H](NC(=O)[C@H](Cc1ccccc1)NC(=O)[C@H](CCCNC(=N)N)NC(=O)[C@H](CCC(N)=O)NC(=O)[C@H](CO)NC(=O)[C@H](C)NC(=O)[C@H](C)NC(=O)[C@H](CCC(=O)O)NC(=O)[C@H](CCC(=O)O)NC(=O)[C@H](CCCCNC(=O)COCCOCCNC(=O)COCCOCCNC(=O)CC[C@H](NC(=O)CCCCCCCCCCCCCCCCCCC(=O)O)C(=O)O)NC(=O)[C@H](CC(C)C)NC(=O)[C@@H](NC(=O)[C@H](CO)NC(=O)[C@@H](NC(=O)[C@H](CC(=O)O)NC(=O)[C@H](CO)NC(=O)[C@@H](NC(=O)[C@H](Cc1ccccc1)NC(=O)[C@@H](NC(=O)CNC(=O)[C@H](CCC(=O)O)NC(=O)C(C)(C)NC(=O)[C@@H](N)Cc1c[nH]cn1)[C@@H](C)O)[C@@H](C)O)C(C)C)[C@@H](C)O)C(=O)N[C@@H](CCC(=O)O)C(=O)N[C@@H](Cc1c[nH]cn1)C(=O)N[C@@H](CC(C)C)C(=O)N[C@H](C(N)=O)C(C)C [compound 6] (H-H[Aib]EGTFTSDVSTLK([AEEA-AEEA-γGlu-C20 diacid])EEAASQRFLEHLV-NH2) | 0.09 | 6489 | 11820 | 0.0316 nM | 316 nM |  |  |  |  |  | 
7 | CC[C@H](C)[C@H](NC(=O)[C@H](Cc1ccccc1)NC(=O)[C@H](CCCNC(=N)N)NC(=O)[C@H](CCC(N)=O)NC(=O)[C@H](CC(C)C)NC(=O)[C@H](C)NC(=O)[C@H](C)NC(=O)CNC(=O)[C@H](CCC(=O)O)NC(=O)[C@H](CC(C)C)NC(=O)[C@H](CC(C)C)NC(=O)[C@H](Cc1c[nH]c2ccccc12)NC(=O)[C@H](CO)NC(=O)[C@H](Cc1c[nH]c2ccccc12)NC(=O)[C@H](CC(=O)O)NC(=O)[C@H](CO)NC(=O)[C@@H](NC(=O)[C@H](Cc1ccccc1)NC(=O)[C@@H](NC(=O)CNC(=O)[C@H](CCC(=O)O)NC(=O)C(C)(C)NC(=O)[C@@H](N)Cc1c[nH]cn1)[C@@H](C)O)[C@@H](C)O)C(=O)N[C@@H](CCC(N)=O)C(=O)N[C@@H](Cc1c[nH]c2ccccc12)C(=O)N[C@@H](CC(C)C)C(=O)N[C@H](C(N)=O)C(C)C [compound 191] (H-H[Aib]EGTFTSDWSWLLEGAALQRFIQWLV-NH2) | 0.61 | 120310 |  |  |  |  |  |  | 0.0794 nM | 904 | 63.1 nM
